Reference: PMC4682775, “A Novel Vasoactive Proline-Rich Oligopeptide from the Skin Secretion of the Frog Brachycephalus ephippium” (PLoS ONE, 2015)
Read-outs that look alike come from different tables or passages of the source. Non-standard residues stand in square brackets, D forms with d. No end group written: not given here. pGlu = O=C1CC[C@@H](C(=O)O)N1

Key:
rat thoracic aorta = test: tissue or blood; parameters: species or system rat (male Wistar)
Procedure: Male Wistar rats (250 ± 30 g) were maintained under controlled temperature (22 ± 1 ≡C), 12/12 h light/dark cycle, and had free access to water and food (Purina-Nestlé, São Paulo, SP, Brazil). Rat thoracic aortic rings were prepared according to Silva-Filho and colleagues. Briefly, aortic rings (3–4 mm) were maintained in Krebs solution (in mM: NaCl, 118.0; KCl, 4.6; CaCl2.2H2O, 2.5; MgSO4.7H2O, 5.7; NaHCO3, 25.0; KH2PO4.H2O, 1.1; and D-glucose, 11.0) under isometric tension of 1.0 g, 37°C and bubbled with 5% CO2 in 95% O2. […]. Time control contractions induced by PE, but without adding drug were obtained in parallel with other vascular segments.
The IC50 values for the ACE activity and the pD2 values for the vasodilator curves were obtained by non-linear regression. All values were expressed as means ± SEM, and significances for compared values were analyzed by Student’s “t” test or One-way ANOVA followed by Bonferroni’s post-test. All procedures were performed using Graph Pad Prism 5.02™ (Graph Pad Software, Inc., San Diego, CA, USA).

M3 muscarinic receptors = conditions: ref [17]; cited from earlier work
[1] = cited from earlier work
rat aorta = conditions: cited from earlier work
Source text: […]. NO is an important endothelium-derived vasodilator and is pivotal in several biological processes. The increase in NO production plays a pivotal role in the cardiovascular effects of BPPs.

[2] = tested on: M1 muscarinic receptor and B2 bradykinin receptor; conditions: ref [15]; cited from earlier work
HEK293 cells = conditions: chemiluminescence assay, ref [15],[17]; cited from earlier work
Source text: It is essentially non-fluorescent until it reacts with NO to form a highly fluorescent benzotriazole. ...

[3] = tested on: argininosuccinate syntethase enzyme (AsS); conditions: followed by increased L-arginine levels and formation of NO; ref [14]; cited from earlier work
human hypertension = conditions: parenteral administration, in contrast to oral administration; ref [10]; cited from earlier work
Source text: The Bj-BPP-5a was the first BPP for which the amino acid sequence was described. Bj-BPP-5a is present in hydroalcoholic extracts of the snake venom Bothrops jararaca. […] Captopril was the fir ...

ACE = biological target: T1, ACE (Rattus norvegicus, UniProt P47820); test: biochemical; parameters: species or system rat (Wistar rat serum); conditions: rat serum ACE; 1.0 mM hippuryl-His-Leu-OH, 20 mM Tris-HCl pH 8.1, 0.3 M NaCl, 37°C, 30 min, duplicate; inhibitor 0.05 to 50 μM; non-linear regression; read-out: IC50, ACE inhibition
T1 construct: 20 μL of enzyme-containing serum; from tissue; host or cells: fresh Wistar rat serum
T1 sequence (P47820 36-1313): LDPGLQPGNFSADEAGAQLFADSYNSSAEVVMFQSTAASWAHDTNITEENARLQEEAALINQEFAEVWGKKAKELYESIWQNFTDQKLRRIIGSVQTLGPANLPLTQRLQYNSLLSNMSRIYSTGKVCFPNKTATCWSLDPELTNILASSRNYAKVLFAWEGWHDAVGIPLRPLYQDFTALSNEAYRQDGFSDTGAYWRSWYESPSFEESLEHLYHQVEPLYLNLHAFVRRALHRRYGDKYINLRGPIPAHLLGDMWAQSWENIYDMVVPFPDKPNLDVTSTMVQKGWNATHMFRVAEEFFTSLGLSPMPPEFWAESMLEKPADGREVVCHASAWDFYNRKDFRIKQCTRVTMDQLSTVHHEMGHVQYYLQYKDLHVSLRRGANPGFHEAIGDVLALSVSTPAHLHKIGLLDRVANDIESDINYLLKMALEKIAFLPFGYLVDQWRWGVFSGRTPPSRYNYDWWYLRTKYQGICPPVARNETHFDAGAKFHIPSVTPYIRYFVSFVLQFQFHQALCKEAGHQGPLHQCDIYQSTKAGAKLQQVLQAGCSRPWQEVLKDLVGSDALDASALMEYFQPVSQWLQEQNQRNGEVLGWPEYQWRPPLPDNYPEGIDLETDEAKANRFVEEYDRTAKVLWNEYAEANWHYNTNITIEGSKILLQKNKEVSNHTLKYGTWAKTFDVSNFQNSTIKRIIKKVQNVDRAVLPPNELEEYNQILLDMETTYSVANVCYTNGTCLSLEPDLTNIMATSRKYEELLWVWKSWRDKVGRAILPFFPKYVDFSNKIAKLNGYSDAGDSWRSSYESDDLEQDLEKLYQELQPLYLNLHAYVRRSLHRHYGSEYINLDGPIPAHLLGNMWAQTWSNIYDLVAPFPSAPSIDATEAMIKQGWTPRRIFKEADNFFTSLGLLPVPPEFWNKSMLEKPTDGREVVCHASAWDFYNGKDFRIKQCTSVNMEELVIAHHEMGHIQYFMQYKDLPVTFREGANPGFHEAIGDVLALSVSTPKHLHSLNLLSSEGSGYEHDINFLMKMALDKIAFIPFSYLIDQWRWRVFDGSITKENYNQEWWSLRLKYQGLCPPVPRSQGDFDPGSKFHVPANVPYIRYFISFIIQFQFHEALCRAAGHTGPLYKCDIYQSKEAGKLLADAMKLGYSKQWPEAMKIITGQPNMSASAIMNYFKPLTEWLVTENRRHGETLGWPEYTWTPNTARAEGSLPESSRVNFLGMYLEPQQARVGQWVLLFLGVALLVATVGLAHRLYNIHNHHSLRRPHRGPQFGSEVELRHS
Procedure: Fresh Wistar rat serum was used as source of ACE in these reactions, and the product H-His-Leu-OH was measured fluorimetrically following derivatization with o-phtaldialdehyde, as described [24, 25]. Reactions were carried out, in duplicate, at 37°C for 30 min in 200 μL of 20 mM Tris-HCl buffer, pH 8.1, 0.3 M NaCl, 1.0 mM H-hippuryl-His-Leu-OH, 20 μL of enzyme-containing serum and different inhibitor concentrations as described above.

VSMCs = conditions: rat aortic VSMCs; 10^−12 to 10^−5 M, 24 hours, MTT 4 hours, n = 3
HUVECs = conditions: 10^−12 to 10^−5 M, 24 hours, MTT 4 hours, n = 3

C[C@H](CS)C(=O)N1CCC[C@H]1C(=O)O [captopril]
Emax (rat thoracic aorta; Rattus norvegicus, endothelium intact (E+), phenylephrine 3 × 10^−7 M, 10^−9–3 × 10^−5 M cumulative, Krebs 37°C, means ± SEM, n = 6, read-out: Emax (relaxation)): 32.1 ± 4.2%
vasodilatation (result in words) (rat thoracic aorta; endothelium dependence): endothelium-dependent vasodilatation
vasodilatation, captopril and BPP-BrachyNH2 compared (rat thoracic aorta; result in words): equipotent and of the same magnitude

<EGGWPRPGPEIPP ([pGlu]GGWPRPGPEIPP) [Bj-BPP-13a]
receptors to which increase of NO production is related (M3 muscarinic receptors): related to the M3 muscarinic receptors activation

<EKWAP [Bj-BPP-5a]
antihypertensive effect ([1]; NO dependence, ref [16]): NO-dependent anti-hypertensive effect
vasodilatory effects (rat aorta; in vitro and in vivo, ref [45] (TsHpt-I), [16] and [15] (Bj-BPP-5a)): vasodilatory effects
endothelium-dependent relaxation (rat aorta; rat aorta, ref [16],[45]): endothelium-dependent relaxations sensitive to eNOS inhibition
receptors on which increment of NO production depends [2]: depends on M1 muscarinic receptor and B2 bradykinin receptor activation
NO release (HEK293 cells): increase NO release

<ENWPHPQIPP ([pGlu]NWPHPQIPP) [Bj-BPP-10c]
antihypertensive effect ([1]; result in words, ref [13]): ACE-independent antihypertensive effect
argininosuccinate syntethase (AsS) activation [3]: activation of the argininosuccinate syntethase enzyme (AsS)

<EWPRPQIPP (N-terminal pyroglutamate) [Bj-BPP-9a]
benefit in treatment of human hypertension (human hypertension): showed benefits

WPPPKVSP-NH2 [BPP-BrachyNH2]
IC50 (ACE): 8.2 µM
reversibility / lethality to vascular cells (rat thoracic aorta; after wash and 30 min stabilization, new PE contraction, data not shown): reversible and non-lethal to vascular cells
cell viability / cytotoxicity (VSMCs): No cytotoxic effects were observed
cell viability / cytotoxicity (HUVECs): No cytotoxic effects were observed
